Measured values taken from patent US20160361250A1, “ACTIVE INGREDIENTS STIMULATING TYPE 2 AND/OR TYPE 3 HUMAN BETA-DEFENSINS AND COSMETIC OR PHARMACEUTICAL COMPOSITIONS CONTAINING SUCH ACTIVE INGREDIENTS” (BASF Beauty Care Solutions France S.A.S., priority 2002, published 2016).

What was measured:
hBD2 [1] = assay: Qualitative RT-PCR of hBD2 expression, 1st step of the screening method; type: cell-based; details: 100 μg/mL; normal human keratinocytes, 16 h
Experimental: (§1) A 1% concentration of the actives is tested on normal human keratinocytes, as a monolayer, on 96-well culture plates, in a specific medium enriched with calcium and free of serum (final concentration 1.7 mM).
(§2) At 80% confluence, cells are contacted with the actives (1 active per well) for 16 h. An untreated control and 2 positive controls (TNFα 100 ng/mL for hBD2 and IFNγ 100 ng/mL for hBD3) are set up in parallel on the same culture plate.
(§3) After 16 h, the supernatants are collected and cells are dry frozen at −80° C. after rinsing in PBS.
(§4) Total RNA are extracted using a 96-well extraction kit on silica columns and assayed using a 96-well spectrophotometer at 260 and 280 nm. RNA are diluted to 5 ng/mL.
(§5) Qualitative one-step RT-PCR is performed on 50 ng of initial RNA in 96 wells, on actin, hBD2 and hBD3. The primers are used at a concentration of 0.5 μM and arc taken from the literature:—hBD2: sense: 5′-[…]-3′; hBD2 antisense 5′-[…]-3′ (Harder J. et al., A peptide antibiotic from human skin. Nature 1997; 387 : 861); hBD3 sense: 5′-[…]-3′; hBD3 antisense: 5′-[…]-3′; actin sense: 5′-[…]-3′; actin antisense: 5′-[…]-3′ (Harder J. et al., Isolation and characterization of human β-defensin-3, a novel human inducible peptide antibiotic. J Biol Chem 2001, 276 : 5707-5713).
(§6) Samples are placed in a thermocycler and follow a common amplification program: 50° C., 30 min; 94° C., 2 min, (94° C., 30 s; 60° C., 30 s; 68° C., 30 s), 32 cycles for the defensins and 30 cycles for actin; 72° C., 10 min; 14° C., infinite.
(§7) After amplification, the products are mixed at a rate of 3 μL of actin amplification products+6 μL of hBD2 amplification products+6 μL of hBD3 amplification products. 5 μL of a mixture of charge buffer and water (⅔) are added and the final 20 μL are deposited on 2% premoulded agarose gel. The samples migrate in 30 minutes and the bands are visualised under UV in a dark room then digitally photographed.
(§8) Photos of the gels are analysed by image processing software which quantifies the intensity of the bands. As the basal level of defensin expression (untreated control) is not detectable, the intensity ratios of the hBD2/actin and hBD3/actin bands can be compared, for example with those obtained for the positive control (treated with TNFα for hBD2 and IFNγ for hBD3) and indicate any stimulation of the expression of the β-defensin in question
(§9) Since the basal level of defensin expression is generally not detectable, stimulation of hBD2 and hBD3 is expressed as a percentage of the positive controls (TNFα for hBD2 and IFNγ for hBD3). IL8 and MIP3α levels are given as pg/mL/RNA concentration (in ng/μL).

IL8 [2] = assay: ELISA of IL8 secreted into the culture medium, 1st step; type: cell-based, human; details: 100 μg/mL; keratinocyte supernatant, 16 h
Experimental: (§10) At the end of this first step, the actives having exerted an effect on β-defensin expression are selected and the supernatants corresponding to these actives are then tested using an ELISA kit in order to determine the levels of MIP3α, IL1 and IL8 secreted into the culture medium under the effect of the actives. The levels are then referred to the RNA concentration assayed in each well in order to compare results with each other.
as §9

hBD3 [3] = assay: Qualitative RT-PCR of hBD3 expression, 1st step of the screening method; type: cell-based; details: 100 μg/mL; normal human keratinocytes, 16 h
Experimental: as §2, §3, §4, §5, §6, §7, §8, §9

MIP3α [4] = assay: ELISA of MIP3α secreted into the culture medium, 1st step; type: cell-based, human; details: 100 μg/mL; keratinocyte supernatant, 16 h
Experimental: as §10, §9

MIP3α [5] = assay: ELISA of MIP3α in supernatants, 2nd step; type: cell-based, human; details: supernatant, 16 h
Experimental: (§11) The supernatants of the actives, whose capacity to induce defensins has been confirmed, are tested using an ELISA kit in order to assay MIP3α, IL8 and IL1α levels. These assays are performed on the same supernatant (200 μL) by carrying out a series dilution (by 1.5 to assay MIP3α and IL8, then by 2 to assay IL1). The levels are then referred to the RNA concentration assayed in each well in order to compare results with each other.
(§12) Quantitative RT-PCR makes it possible to obtain a basal value for the defensin expression for untreated controls. The results are therefore expressed as a percentage of the control. IL8, IL1 and MIP3 cytokine levels are given as pg/mL/RNA concentration (in ng/μL).

IL8 [6] = assay: ELISA of IL8 in supernatants, 2nd step; type: cell-based, human; details: supernatant, 16 h
Experimental: as §11, §12

hBD2 and/or hBD3 [7] = assay: 1st step of the screening method, overall outcome (defensin RT-PCR plus MIP3α/IL8 ELISA); type: cell-based, human; details: concentrations of Tables I and II
Experimental: as §1, §2, §3, §4
as §5, with “5707-5713). […]” for “5707-5713).”
Photos of the gels are analysed by image processing software which quantifies the intensity of the bands. […]

IL1α = assay: ELISA of IL1α in supernatants, 2nd step; type: cell-based, human; details: supernatant, 16 h
Experimental: as §11, §12

hBD2 and/or hBD3 [8] = assay: 2nd step of the screening method, overall outcome (quantitative RT-PCR plus MIP3α/IL8/IL1α ELISA); type: cell-based, human
Experimental: The actives which best satisfied the criteria for the first step undergo a dose-effect analysis.
(§13) The actives are then tested on 5 concentrations (from 0.001% to max viability) in quadruplicate on normal human keratinocytes as a monolayer on 96-well culture plates, in a specific medium enriched with calcium and free of serum (CaCl2 1.7 mM) (same conditions as in example 1).
as §3
(§14) Total RNA are extracted using a 96-well extraction kit on silica columns and assayed using a 96-well spectrophotometer at 260 and 280 nm. RNA are diluted to 5 ng/μL.
(§15) Quantitative RT-PCR in 96 wells on actin, hBD2 and hBD3 is initially carried out on 50 ng of RNA, using a one-step kit containing Sybrgreen, in a fluorescence thermocycler with the same primers as previously (0.5 μM). The amplification program is as follows: 50° C., 30 min; 94° C., 15 min; (94° C., 15 s; 60° C., 30 s; 72° C., 30 s)×50 cycles; 90° C., 1 min; 30° C., 1 min; 50° C. to 95° C. (10 s every ° C.); 14° C., infinite.
(§16) A study of the fusion graphs makes it possible to verify the specificity of amplified products. The fluorescence graph as a function of the number of cycles gives the C(T) value corresponding to the number of cycles needed to obtain initiation of the fluorescence signal. The more an mRNA is expressed, the lower the C(T) value. Calculation of Sgene=(½)^C(T) for each RNA takes into consideration the exponential increase in the number of copies during amplification. The Sgene hBD2/Sgene actin and Sgene hBD3/Sgene actin ratios can be compared with those of the untreated control to give the percentage stimulation produced.
as §11, with “The levels are then referred to the RNA concentration assayed in each well in order to compare results with each other.” left out

hBD2 [9] = assay: Quantitative RT-PCR of hBD2 expression, 2nd step (dose-effect); type: cell-based, human; details: 16 h, untreated control = 100%
Experimental: as §13, §3, §14, §15, §16, §12
(§17) In the same way as in example 2, retinoic acid and retinol were tested for their capacity to stimulate hBD2 and/or hBD3.

hBD3 [10] = assay: Quantitative RT-PCR of hBD3 expression, 2nd step (dose-effect); type: cell-based, human; details: 16 h, untreated control = 100%
Experimental: as §13, §3, §14, §15, §16, §12, §17

SMILES | HBD2 expression, percentage of the positive control (TNFα) (hBD2 [1]) [%] | IL8 level (IL8 [2]) | HBD3 expression, percentage of the positive control (IFNγ) (hBD3 [3]) [%] | MIP3α level (MIP3α [4]) | MIP3α level (MIP3α [5]; conc. 100 μg/mL) | MIP3α level (MIP3α [5]; conc. 500 μg/mL) | IL8 level (IL8 [6]; conc. 100 μg/mL) | IL8 level (IL8 [6]; conc. 500 μg/mL) | satisfying the criteria for the first step (in words) (hBD2 and/or hBD3 [7]) | IL1α level (IL1α; conc. 100 μg/mL) | IL1α level (IL1α; conc. 500 μg/mL) | induction of defensins 2 and/or 3 (in words) (hBD2 and/or hBD3 [8]; jasmonic acid 100 μg/mL, α-MSH as in Table III) | satisfying the criteria of the invention (in words) (hBD2 and/or hBD3 [8]; second step) | hBD2 expression, percentage of the control (hBD2 [9]; conc. 100 μg/mL) [%] | hBD2 expression, percentage of the control (hBD2 [9]; conc. 500 μg/mL) [%] | hBD3 expression, percentage of the control (hBD3 [10]; conc. 100 μg/mL) [%] | hBD3 expression, percentage of the control (hBD3 [10]; conc. 500 μg/mL) [%]
CC[C@H](C)[C@H](N)C(=O)O (racemic) [D,L-Isoleucine] | 0 | 30.6 pg/mL/RNA concentration (in ng/μL) | 0 | 5.6 pg/mL/RNA concentration (in ng/μL) |  |  |  |  |  |  |  |  |  |  |  |  | 
CC[C@H](C)[C@H](N)C(=O)OC [Isoleucine Methyl ester] | 16 | 7.7 pg/mL/RNA concentration (in ng/μL) | 6 | 3.8 pg/mL/RNA concentration (in ng/μL) |  |  |  |  |  |  |  |  |  |  |  |  | 
CC/C=C\C[C@H]1C(=O)CC[C@@H]1CC(=O)O [Jasmonic Acid] | 7 | 25.3 pg/mL/RNA concentration (in ng/μL) | 0 | 6 pg/mL/RNA concentration (in ng/μL) | 4.6 pg/mL/RNA concentration (in ng/μL) | 13.6 pg/mL/RNA concentration (in ng/μL) | 37.9 pg/mL/RNA concentration (in ng/μL) | 103.3 pg/mL/RNA concentration (in ng/μL) | stimulate hBD2 and/or hBD3 without triggering the expression of MIP3 and IL8 cytokines | 31.2 pg/mL/RNA concentration (in ng/μL) | 97.1 pg/mL/RNA concentration (in ng/μL) | capable of inducing defensins 2 and/or 3 | stimulate hBD2 and/or hBD3 without triggering the expression of MIP3, IL8 or IL1 cytokines | 86 | 134 | 477 | 26919
